The values that follow come from ChEMBL document CHEMBL5500364, “Design, synthesis, and biological evaluation of some 2-(3-oxo-5,6-diphenyl-1,2,4-triazin-2(3H)-yl)-N-phenylacetamide hybrids as MTDLs for Alzheimer's disease therapy” (Eur J Med Chem, 2024).

The subject of data set [1] is Rattus norvegicus. The experiment in a line: Reversal of amyloid beta (1 to 42 residues) induced cognitive impairment in Wistar rat assessed as decrease in BACE-1 protein level at 10 mg/kg, po pretreated with amyloid beta for 7 days followed by compound administration for 9 days and measured after 5 days by Western blot analysis. It is filed as functional, organism-based. The settings on record: time 14.0 day. A general note: A western blot detects proteins with antibodies after separation by electrophoresis.

A short description of data set [2]: AUC (0 to 8 hrs) in male Wistar rat at 10 mg/kg, po measured after 72 hrs by HPLC analysis. The settings on record: in vivo. The class given is ADME, organism-based.
The subject of data set [3] is Hippocampus. Briefly: Reversal of scopolamine-induced oxidative stress in male Wistar rat brain hippocampus assessed as increase in SOD level at 2.5 to 10 mg/kg, po preadministered with compound for 30 mins starting from 7 th day trail followed by scopolamine administration and measured after 5 mins […]. The settings on record: dose 2.5-10 mg/kg, time 35.0 min. The class given is functional, organism-based.

Data set [4] relates to Rattus norvegicus. Briefly: Reversal of amyloid beta (1 to 42 residues) induced cognitive impairment in Wistar rat assessed as reduction in appearance of pyknotic neuron bodies in hippocampus at 2.5 to 10 mg/kg, po pretreated with amyloid beta for 7 days followed by compound administration for 9 days and measured after 5 days by Nissl's staining based analysis. It is filed as functional, organism-based. The settings on record: dose 2.5-10 mg/kg, time 14.0 day.

Data set [5] can be described thus: Toxicity in wildtype Oregon R-positive Drosophila assessed as cell viability in gut at 10 uM by MTT assay relative to control. The settings on record: read-out: Activity. The class given is tissue-based.
Data set [6] has as its system SH-SY5Y. Briefly: Neuroprotective activity against amyloid-beta(1 to 42) induced oxidative stress in differentiated human SH-SY5Y cells assessed as increase in cell viability at 40 uM preincubated with amyloid-beta (1 to 42 ) for 24 hrs followed by compound addition and measured after 48 hrs by MTT assay relative to control. It is filed as functional. On the technique in general: Tetrazolium assays rely on reduction of a dye to a coloured formazan, in cell work by metabolically active cells.

Data set [7] relates to Rattus norvegicus. Briefly: Reversal of amyloid beta (1 to 42 residues) induced cognitive impairment in Wistar rat assessed as reduction in neural dispersion at DG region in hippocampus at 2.5 to 10 mg/kg, po pretreated with amyloid beta for 7 days followed by compound administration for 9 days and measured after 5 days by Nissl's staining based analysis. The settings on record: dose 2.5-10 mg/kg, time 14.0 day. It is filed as functional, organism-based.

The target of data set [8] is Cholinesterase (Homo sapiens, UniProt P06276). Briefly: Inhibition of human BChE using butyrylthiocholine iodide as substrate preincubated for 30 mins followed by substrate addition by DTNB based Ellman's colorimetric method. A general note: In Ellman's method for cholinesterases, released thiocholine reacts with DTNB.
The nature of data set [9]: Acute toxicity in Wistar rat assessed as effect on heart tissue at 500 to 1000 mg/kg, po administered for 14 days by histopathological analysis. The class given is organism-based. The settings on record: in vivo, 336 h, dose 500-1000 mg/kg, time 14 day.

Active and inactive are the calls of the source. The rule behind the calls is not given here. Some results are limits rather than exact numbers.

Sequence of Cholinesterase (P06276 whole entry): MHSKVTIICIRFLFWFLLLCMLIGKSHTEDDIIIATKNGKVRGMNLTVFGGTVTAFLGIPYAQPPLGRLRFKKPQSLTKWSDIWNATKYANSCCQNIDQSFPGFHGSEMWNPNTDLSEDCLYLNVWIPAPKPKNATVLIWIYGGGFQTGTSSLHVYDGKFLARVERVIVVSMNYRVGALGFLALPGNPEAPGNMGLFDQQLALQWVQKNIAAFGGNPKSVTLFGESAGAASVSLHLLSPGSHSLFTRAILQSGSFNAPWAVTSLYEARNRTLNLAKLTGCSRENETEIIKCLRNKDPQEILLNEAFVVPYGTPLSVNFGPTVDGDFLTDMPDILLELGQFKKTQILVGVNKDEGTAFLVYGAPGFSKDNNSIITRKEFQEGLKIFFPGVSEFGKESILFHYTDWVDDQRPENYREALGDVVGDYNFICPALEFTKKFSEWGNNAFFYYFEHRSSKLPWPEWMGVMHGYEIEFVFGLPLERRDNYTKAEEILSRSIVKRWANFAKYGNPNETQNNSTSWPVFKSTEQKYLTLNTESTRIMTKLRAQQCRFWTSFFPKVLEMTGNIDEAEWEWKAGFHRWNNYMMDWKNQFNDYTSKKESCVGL

In the case of `COc1cc(NC(=O)Cn2nc(-c3ccccc3)c(-c3ccccc3)nc2=O)cc(OC)c1`, the outcome in data set [1], in data set [3], in data set [4] and in data set [7] was Active. The AUC(0-t) (as a rule, the area under the concentration-time curve up to a stated or last time point) at 72 h in data set [2] was 1140 ng·h/mL. The viability at 10 µM in data set [5] is 78%. In addition, the Activity is recorded as 72% in data set [6] and “Non-Toxic” in [9]. The IC50 (usually the concentration needed to halve the response being measured) in data set [8] was more than 10 µM.
